Laboratory results published in PMC12566971, “Polyprenylated Acylphloroglucinols from Hypericum rochelii and Hypericum olympicum—Cytotoxic Effects on Non-Tumorigenic Cell Lines and Antibacterial Potential” (Pharmaceuticals, 2025).

System: CCL-1 and HGF cells
Test: Western blot for autophagy proteins Atg5, Atg7, LC3A/B
Assay type: cell-based
Settings: 24 h; erufosine 30 µM, HirDM90 IC50
Protocol: For Western blot, CCL-1 and HGF cell lines were chosen, and they were seeded in either 6-well plates or 55 mm Petri dishes suitable for cell culture. They were treated with an exposure time of 24 h in an incubator (Panasonic MCO-18AC, Panasonic Healthcare Ltd., […], Japan). […] Hans-Jörg Eibl. In addition, a higher concentration of an […] added to one of the tests for comparison. The samples were trypsinized, collected, washed with PBS (TS1101, HiMedia, Mumbai, India), centrifuged, and frozen at -80 °C if storage was necessary. Then they were lysed on ice with a buffer containing 100 mM Tris-HCl (648313, Sigma-Aldrich, St. Louis, MO, USA) at pH 8.0, 4% sodium dodecyl sulfate (SDS, […], Sigma-Aldrich), 20% glycerol (49779, Sigma-Aldrich), 1% Na3VO4 (450243, Sigma-Aldrich), 200 mM dithiothreitol (DTT, 3483-12-3, Sigma-Aldrich, Burlington, MA, USA) supplemented with protease inhibitor (05892970001, Roche). The cell lysate was heated to boiling for 15 min, then centrifuged at 13,000 rpm for 10 min at 4 °C. Lysates were subjected to denaturing SDS polyacrylamide gel electrophoresis on acrylamide 4-20% gradient Mini-PROTEAN® TGXTM Stain-Free gels (4568094, Bio-Rad Laboratories, Hercules, CA, USA). […] Densitometric calculation and analysis was performed with Quantity One software version 4.6.9 (Bio-Rad Laboratories).

SMILES: CCCCCCCC/C=C\CCCCCCCCCCCCOP(=O)([O-])OCC[N+](C)(C)C [erufosine]
- Conversion of LC3A/B to the lower migrating form: converted to the lower migrating form visibly
